In patent publication US10106519B2, “3-phenyl-7-hydroxy-isocoumarins as macrophage migration inhibitory factor (MIF) inhibitors” (The Provost, Fellows, Foundation Scholars, & the Other …, priority 2014, dated 2018):
Entries after “also recorded” stand apart in the source; their conditions may differ. One block for each compound: values may come before it.

Tests used:
MIF tautomerase = molecular target: T1, MIF tautomerase (Homo sapiens, UniProt P14174); experiment: MIF tautomerase inhibition assay; format: biochemical; conditions: structure activity relationship studies (FIG. 10)
T1 construct: host or cells: E. coli BL21
T1 sequence (P14174 2-115 limits assumed): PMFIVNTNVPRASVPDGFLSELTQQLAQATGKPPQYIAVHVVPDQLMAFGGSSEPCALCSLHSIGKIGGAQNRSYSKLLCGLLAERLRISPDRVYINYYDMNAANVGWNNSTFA
Experimental: Human recombinant MIF was purified as per Bernhagen et al. (Biochemistry, 1994. 33(47): p. 14144-55). Briefly, BL21 E. coli cells expressing the pET11b-MIF construct were grown to an absorbance at 600 nm (OD) of […]. Isopropyl 1-thio-P-D-galactopyranoside (IPTG) (Sigma—cat no. 16758) was added to a final concentration of 1 mM to induce expression of the MIF gene and incubated for another 3 hours. Bacteria were then harvested by centrifugation and the cell pellets were then frozen. Protein purification was then out sourced to Scottish Biomedical, where the bacterial pellets were thawed and resuspended in 3 ml of Tris-buffered saline. The bacteria were then lysed by adding an equivalent number of glass beads and vortexing strongly for 10 minutes. Glass beads were removed by centrifugation at 1000 g for 10 minutes and the bacterial extract was centrifuged at 1000 g for a further 30 minutes. The supernatant was then sterile-filtered through a […] membrane filter and put through a MONO Q anion exchange chromatography column. MIF was eluted using Tris-buffered saline in the first flow-through fractions and pooled and placed on ice. These pooled fractions were then applied to a C8-SepPak reverse phase column. Unbound material was eluted by washing with water and 20% acetonitrile/water. MIF was then eluted using 6 column volumes of 60% acetonitrile/water. This sample was then renatured by dissolving MIF at a concentration of […] in 20 mM sodium phosphate buffer containing 8M urea and 5 mM DTT and dialysed against 20 mM sodium phosphate buffer. […]
L-dopachrome methyl ester was prepared at 2.4 mM through oxidation of L-3,4-dihydroxyphenylalanine methyl ester with sodium periodate. The solution was mixed well and placed at room temperature for 5 minutes before being placed on ice in the dark. 100 ng of rMIF was added to each of the Tautomerase Inhibitors or ISO-1 at a number of concentrations (1, 50 and 100 μM) with substrate. The decrease in absorbance was measured with a spectrophotometer at 475 nm every 10 seconds for 10 minutes.
The rate of the reaction of rMIF and substrate alone was measured over time at 475 nm. This was compared to the rate of this reaction with the addition of 100 μM of each of the inhibitors. Inhibition was calculated as the percentage in the reduction of the rate of change with the addition of the inhibitor averaged over five minutes.

[1] = test system: Lewis Lung carcinoma cells; experiment: Subcutaneous LLC1 tumour model with in vivo tautomerase inhibitor treatment; design: species or system C57BL/6 mice; conditions: 35 mg/kg intraperitoneally 30 min prior to inoculation and twice weekly, day 28 (FIG. 8)
Experimental: Log phase cultures of LLC-1 cells were harvested by trypsinisation and washed three times with sterile phosphate buffered saline (PBS) and resuspended at a cell density of 5×10^5/ml in PBS. Animals were shaved with an electric shaver 24 hours before subcutaneous injection. 5×10^5 Lewis Lung cells were injected subcutaneously into the left flank of C57BL/6 mice of 6-8 weeks. Animals were monitored for the duration of the experiment and tumour measurements were recorded twice weekly with a digital callipers. Tumour volume (mm^3) was calculated as 0.5×L×W^2, where length is representative of the larger tumour diameter and the width represents the smaller tumour diameter. Animals are sacrificed when tumours reach a diameter of 15 mm or if tumours become ulcerated. Tumours are then removed along with the lungs, spleen and liver.
30 minutes prior to LLC-1 inoculation, inhibitors (TI 19/ISO-1) were administered at a concentration of 35 mg/kg in a volume of 100 μl 5% DMSO in sterile PBS. Control groups were given injections of vehicle 5% DMSO in sterile PBS or sterile PBS alone. Animals were treated twice weekly for four weeks.
In order to assess the antitumour activity of the novel tautomerase inhibitors in vivo, a subcutaneous LLC-1 cell model was set up. The subcutaneous model was chosen so that tumours could be easily visualised and measured during the course of the experiment and to allow assessment of the growth of the tumour in real time. Lewis Lung carcinoma cells (5×10^5) were injected sub-cutaneously into the left flank of C57BL/6 mice. Caliper measurements were taken twice weekly and tumour volume (mm^3) was calculated as 0.5×L×W^2. […] The cut off point for this model was when the tumour measured 15 mm in diameter. This model gave us an indication of normal tumour growth in this subcutaneous model. It can be seen from this model that from day 22 to day 28 the size of the tumour grows considerably.
Once it was determined that the enzymatic activity played a role in the growth of tumours, the subcutaneous LLC model was then used to assess the efficiency of the small weight molecular inhibitors. C57/B16 mice were injected intraperitoneally with 35 mg/kg of each of the inhibitors 30 minutes prior to subcutaneous tumour inoculation and again twice weekly for 4 weeks. Animals were monitored daily and tumour measurements taken until the tumour measured 15 mm in diameter.

[2] = test system: LPS mediated PGE-2 production; experiment: PGE-2 production in LPS treated RAW macrophage cells (ELISA); format: cell-based, murine; conditions: 100 μM inhibitor, 100 ng/ml LPS (FIG. 4)
Experimental: Raw macrophage murine cells were plated at a cell density of 1×10^5 and pre-treated with 100 μM of each of the inhibitors […] for 30 minutes at 37° C. in a humidified 5% CO2 incubator. Raw macrophage cells were then treated with 100 ng/ml of LPS and supernatants were collected after 16 hours at 37° C. in a humidified 5% CO2 incubator and analysed for PGE-2 production. Levels of PGE-2 were measured by ELISA. (CAT # KGE004 R&D Syst).

PGE-2 = conditions: increasing concentrations; cited from earlier work
[3] = test system: Lewis Lung carcinoma cells (LLC); experiment: LLC-GLuc proliferation assay with rMIF; format: cell-based, mouse; conditions: 100 μM inhibitor, 100 ng/ml rMIF, 48 hours (FIG. 5)
Experimental: LLC-GLuc cells were plated in a 6 well plate at a density of 5×10^4 cells/ml in DMEM supplemented with P/S, 10% FCS and L-Glu. After overnight adherence, 100 ng/ml MIF was added along with the inhibitors or DMSO to a total of 1 ml serum free medium. Cells were harvested after 48 hours by trypsinisation and counted in a haemocytometer.
The ability of candidate compounds to reduce cellular proliferation was also examined. For this assay, LLC cells were plated at a cell density of 5×10^4 cells/ml. The cells were then pre-treated with TI 19 or ISO-1 at a concentration of 100 μM. The cells were then treated with 100 ng/ml of recombinant MIF. The cells were incubated at 37° C. in a humidified 5% CO2 incubator and after 48 hours the cells were harvested and counted.

[4] = test system: LPS induced TNF-α production; conditions: RAW 264.7 cell line, previously shown; cited from earlier work
[5] = test system: LPS induced TNF-α production; experiment: Inhibition of LPS induced TNF-α production in RAW 264.7 macrophage cells (ELISA); format: cell-based, mouse
Experimental: RAW 264.7 macrophage cells were plated at 1×10^5/ml in 450 μl of medium in a 48 well plate. 16 hours later cells were treated with ISO-1 or Tautomerase Inhibitors at a final concentration of 10, 50 or 100 μM for 30 minutes before stimulation with 100 ng/ml LPS. Supernatants were collected after 20 hours for determination of TNF-α levels. TNF-α levels were determined using a TNF-α specific ELISA (CAT # DY410 R&D Syst).
96 well plates were coated with 50 μl of Capture Antibody ([…]) in PBS and sealed and incubated overnight at 4° C. Plates were then washed three times in 0.05% PBS Tween and plates blotted. Plates were blocked by adding 150 μl of 1% BSA in PBS (Gibco—cat no. 14190-094) to each well and incubated at room temperature for 2 hours. Plates were washed again as previously described. 50 μl of sample or standard was added to each well and incubated for overnight at 4° C. Plates were then washed again as described. 50 μl of the detection Antibody (200 ng/ml) in 1% BSA in PBS was added to each well and incubated for 2 hours at room temperature. Plates were then washed again as described. 50 μl of working concentration of Streptavidin—HRP was added to each well and plates were covered and incubated for 20 minutes at room temperature. 50 μl of substrate solution (One OPD tablet and one urea hydrogen peroxide/buffer tablet were dissolved in 20 ml of water to yield a ready to use buffered solution, Sigma—cat no. 9187-50) was added to each well and incubated for 20 minutes at room temperature. 25 μl of 2N H2SO4 was added to each well to stop the reaction. The optical density of each well was then measured with a spectrophotometer at 450 nm.
Initially the panel of 25 novel potential tautomerase inhibitors was screened in an in-vitro system. In order to do this we exploited the fact that MIF is needed for optimal LPS induced TNF-α production. We therefore reasoned that our potential TIs should be able to inhibit LPS induced TNF-α in RAW macrophage murine cells. RAW macrophage murine cells were plated at 37° C. in a humidified 5% CO2 incubator. 16 hours later the cells were pre-treated with each of the inhibitors at concentration of 100, 50 or 10 μM for 30 minutes 100 ng/ml of LPS was then added to the cells and supernatants were collected after 16 hours and analysed for TNF-α production by ELISA.

prostate cancer cells = conditions: cited from earlier work
[6] = test system: circulating levels of TNF-α; conditions: LPS induced model of murine sepsis; cited from earlier work
[7] = comparative analysis, same assay

Compound: COc1cc2c(=O)oc(-c3ccccc3C)cc2cc1C [SDG-51, 3-(2′-methylphenyl)-6-methyl-7-methoxyisocoumarin]
tautomerase inhibitory activity of analogues, in words (MIF tautomerase): did not significantly inhibit MIF tautomerase

Compound: COc1ccc2cc(-c3ccccc3C)oc(=O)c2c1 [SDG-23]
tautomerase inhibitory activity of analogues, in words (MIF tautomerase): did not significantly inhibit MIF tautomerase

Compound: O=c1oc(-c2ccccc2O)cc2ccccc12 [SDG-50]
tautomerase inhibitory activity of analogues, in words (MIF tautomerase): dramatic loss in tautomerase inhibition activity

Compound: Cc1cccc(-c2cc3ccc(O)cc3c(=O)o2)c1 [SDG-47, 3-(3′-methylphenyl)-7-hydroxyisocoumarin]
tautomerase inhibitory activity of analogues, in words (MIF tautomerase): almost complete inhibition of MIF tautomerase activity

Compound: COC(=O)CC1CC(c2ccc(O)cc2)=NO1 (stereo not shown) [ISO-1, reference compound]
reduction in tumour growth / tumour size [1]: over 50%
reduction of LPS mediated PGE-2 production, in words [2]: significantly reduces
production of PGE-2, in words (PGE-2): reduce the production of PGE-2 in a dose dependant manner
reduction of MIF induced proliferation, in words [3]: less so; also recorded: reduced the MIF induced proliferation
TNF-α production induced by LPS, in words [4]: inhibit TNF-α production induced by addition of LPS
reduction of TNF-α production ([5]; 100 μM inhibitor 30 minutes before 100 ng/ml LPS (FIG. 2A)): 20%
cell proliferation, in words (prostate cancer cells): decreased cell proliferation in prostate cancer cells
circulating levels of TNF-α, in words [6]: reduce circulating levels of TNF-α

Compound: COc1cc2cc(-c3ccccc3C)oc(=O)c2cc1OC [SDG-53, 3-(2′-methylphenyl)-6,7-dimethoxyisocoumarin]
tautomerase inhibitory activity of analogues, in words (MIF tautomerase): did not significantly inhibit MIF tautomerase

Now from value to compound, other results behind:

tautomerase inhibitory activity of analogues, in words (MIF tautomerase): inactivity
Compound: O=c1oc(-c2ccccc2)cc2ccccc12 [SDG-46]

inhibition of MIF tautomerase activity, analogues of TI 19 (MIF tautomerase): 86%
Compound: Cc1ccccc1-c1cc2cc(O)c(O)cc2c(=O)o1 [SDG-54, 3-(2′-methylphenyl)-6,7-hydroxyisocoumarin]
tautomerase inhibitory activity of analogues, in words (MIF tautomerase): almost complete inhibition of MIF tautomerase activity

tautomerase inhibitory activity of analogues, in words (MIF tautomerase): some inhibitory activity
Compound: Cc1cc2cc(-c3ccccc3C)oc(=O)c2cc1O [SDG-52, 3-(2′-methylphenyl)-6-methyl-7-hydroxyisocoumarin]

inhibition of MIF tautomerase activity, analogues of TI 19 (MIF tautomerase): > 90%
Compound: Cc1ccccc1-c1cc2ccc(O)cc2c(=O)o1 [SDG-22, 3-(2′-methylphenyl)-7-hydroxyisocoumarin]
tautomerase inhibitory activity of analogues, in words (MIF tautomerase): very effective inhibitor of MIF tautomerase; also recorded: most effective tautomerase inhibitor identified to date; also recorded: significantly more potent than TI 19
reduction of TNF-α production, comparative analysis ([5]; LPS stimulated RAW macrophage murine cells, 100 μM (FIG. 11)): 97%
more effective than ISO-1 in reducing TNF-α production [5, 7]: 80%
more effective than TI 19 in reducing TNF-α production [5, 7]: 10%
reduction of TNF-α production, in words ([5]; concentration not given): significant reduction in TNF-α production

tautomerase inhibitory activity of analogues, in words (MIF tautomerase): dramatic loss of inhibitory activity
Compound: Cc1cc2ccccc2c(=O)o1 [SDG-40]

tautomerase inhibitory activity of analogues, in words (MIF tautomerase): ineffective as a tautomerase inhibitor
Compound: Cc1ccccc1-c1cc2ccccc2c(=O)[nH]1 [SDG-42]
